Experiments:
Test in all cases: relative viability (nuclei count vs DMSO), 5 days (fraction); higher = more cells survive
Carfilzomib + Vorinostat = compound: CC(C)C[C@H](NC(=O)[C@H](CCc1ccccc1)NC(=O)CN1CCOCC1)C(=O)N[C@@H](Cc1ccccc1)C(=O)N[C@@H](CC(C)C)C(=O)[C@@]1(C)CO1 [Carfilzomib] + O=C(CCCCCCC(=O)Nc1ccccc1)NO [Vorinostat] (partner 1 µM)
Method in brief: (§1)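 Each reported value is a median over duplicate plates. It expresses relative viability: treated-well nuclei count divided by vehicle-well nuclei count. Lung cancer cell lines in 1536-well plates were dosed by pin tool a day after seeding, alone with one drug or with a fixed anchor-drug dose plus five library-drug doses (not always all listed) in √10 steps, and nuclei were counted after 5 days.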

Carfilzomib + Pemetrexed = compound: CC(C)C[C@H](NC(=O)[C@H](CCc1ccccc1)NC(=O)CN1CCOCC1)C(=O)N[C@@H](Cc1ccccc1)C(=O)N[C@@H](CC(C)C)C(=O)[C@@]1(C)CO1 [Carfilzomib] + Nc1nc2[nH]cc(CCc3ccc(C(=O)N[C@@H](CCC(=O)O)C(=O)O)cc3)c2c(=O)[nH]1 [Pemetrexed] (partner 0.2 µM)
Method in brief: as §1

Olaparib + Vorinostat = compound: O=C(c1cc(Cc2n[nH]c(=O)c3ccccc23)ccc1F)N1CCN(C(=O)C2CC2)CC1 [Olaparib] + O=C(CCCCCCC(=O)Nc1ccccc1)NO [Vorinostat] (partner 1 µM)
Method in brief: as §1

Olaparib + Foretinib = compound: O=C(c1cc(Cc2n[nH]c(=O)c3ccccc23)ccc1F)N1CCN(C(=O)C2CC2)CC1 [Olaparib] + COc1cc2c(Oc3ccc(NC(=O)C4(C(=O)Nc5ccc(F)cc5)CC4)cc3F)ccnc2cc1OCCCN1CCOCC1 [Foretinib] (partner 0.25 µM)
Method in brief: as §1

Cell Line: NCI-H1793
- relative viability (Carfilzomib + Vorinostat; first compound 0.001 µM): 0.605
- relative viability (Carfilzomib + Vorinostat; first compound 0.003162 µM): 1
- relative viability (Carfilzomib + Vorinostat; first compound 0.01 µM): 0.7
- relative viability (Carfilzomib + Vorinostat; first compound 0.03162 µM): 0.396
- relative viability (Carfilzomib + Vorinostat; first compound 0.1 µM): 0.107
- relative viability (Carfilzomib + Pemetrexed; first compound 0.001 µM): 0.58
- relative viability (Carfilzomib + Pemetrexed; first compound 0.003162 µM): 1.13
- relative viability (Carfilzomib + Pemetrexed; first compound 0.01 µM): 0.861
- relative viability (Carfilzomib + Pemetrexed; first compound 0.03162 µM): 0.7
- relative viability (Carfilzomib + Pemetrexed; first compound 0.1 µM): 0.336
- relative viability (Olaparib + Vorinostat; first compound 0.08 µM): 0.841
- relative viability (Olaparib + Vorinostat; first compound 0.253 µM): 0.707
- relative viability (Olaparib + Vorinostat; first compound 2.53 µM): 0.683
- relative viability (Olaparib + Vorinostat; first compound 8 µM): 0.679
- relative viability (Olaparib + Foretinib; first compound 0.08 µM): 0.684
- relative viability (Olaparib + Foretinib; first compound 0.253 µM): 0.624
- relative viability (Olaparib + Foretinib; first compound 2.53 µM): 0.648
- relative viability (Olaparib + Foretinib; first compound 8 µM): 0.706
